#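 Grown in 96-well plates, cells were treated for 48 hours with each compound at five concentrations. Insufficient inhibition: endpoint recorded as highest concentration tested. GI50: concentration for 50% inhibition of growth. At the TGI there is no net growth.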
# Assays:
# Assay in all cases: DTP human tumour cell line panel, 48 h
# [1] = test system: SF-268 CNS
# [2] = test system: UACC-257 melanoma
# [3] = test system: UACC-62 melanoma
# [4] = test system: IGROV1 ovarian
# [5] = test system: A498 renal
# [6] = test system: U251 CNS
# [7] = test system: KM12 colon
# [8] = test system: OVCAR-8 ovarian
# [9] = test system: HCT-15 colon
# [10] = test system: OVCAR-5 ovarian
structure (smiles),measurement,setting,value
CN(c1ccccc1)c1c(-c2ccccc2)c(=O)oc2c1ccc1occc12,TGI,[1],> 100 µM
same,TGI,[2],> 100 µM
same,TGI,[3],> 100 µM
same,TGI,[4],> 100 µM
same,TGI,[5],> 100 µM
same,TGI,[6],> 100 µM
same,TGI,[7],> 100 µM
same,TGI,[8],> 100 µM
same,TGI,[9],> 100 µM
Cc1nc2ccccc2n1CCc1nc2ccccc2[nH]1,TGI,[1],> 100 µM
same,TGI,[2],> 100 µM
same,TGI,[3],> 100 µM
same,TGI,[4],> 100 µM
same,TGI,[5],> 100 µM
same,TGI,[6],> 100 µM
same,TGI,[7],> 100 µM
same,TGI,[8],> 100 µM
same,TGI,[10],> 100 µM
same,TGI,[9],> 100 µM
CC12CC(=O)NN=C1c1ccccc1C2 (configuration not stated),TGI,[1],> 100 µM
same,TGI,[2],> 100 µM
same,TGI,[3],> 100 µM
same,TGI,[4],> 100 µM
same,TGI,[5],> 100 µM
same,TGI,[6],> 100 µM
same,TGI,[7],> 100 µM
same,TGI,[8],> 100 µM
same,TGI,[10],> 100 µM
same,TGI,[9],> 100 µM
NC(=S)NS(=O)(=O)c1ccc(Cl)cc1Cl,TGI,[1],> 100 µM
same,TGI,[2],> 100 µM
same,TGI,[3],> 100 µM
same,TGI,[4],> 100 µM
same,TGI,[6],> 100 µM
same,TGI,[7],> 100 µM
same,TGI,[8],> 100 µM
same,TGI,[10],> 100 µM
same,TGI,[9],> 100 µM
CC[N+]1(C)CCC(O)(/C=C/c2ccc(Cl)c(Cl)c2)C(C(=O)/C=C/c2ccc(Cl)c(Cl)c2)C1 (configuration not stated),TGI,[1],8.54 µM
same,TGI,[2],5.96 µM
same,TGI,[3],3.64 µM
same,TGI,[4],7.8 µM
same,TGI,[5],7.12 µM
same,TGI,[6],3.71 µM
same,TGI,[7],6.69 µM
same,TGI,[8],8.97 µM
same,TGI,[10],7.13 µM
same,TGI,[9],7.13 µM
O=c1c2cc(Cl)ccc2n2nnc3ccc(NCCNCCO)c1c32,TGI,[1],8.86 µM
same,TGI,[2],3.6 µM
same,TGI,[3],5.41 µM
same,TGI,[4],6.26 µM
same,TGI,[5],2.86 µM
same,TGI,[6],1.94 µM
same,TGI,[7],3.48 µM
same,TGI,[8],2.53 µM
same,TGI,[10],3.42 µM
same,TGI,[9],2.59 µM
C=CC(=O)N1C/C(=C\c2ccc(F)cc2)C(=O)/C(=C/c2ccc(F)cc2)C1,TGI,[1],0.622 µM
same,TGI,[2],6.05 µM
same,TGI,[3],0.223 µM
same,TGI,[4],1.38 µM
same,TGI,[5],1.48 µM
same,TGI,[6],2.28 µM
same,TGI,[7],0.434 µM
same,TGI,[8],2.59 µM
same,TGI,[10],2.7 µM
same,TGI,[9],0.433 µM
CCCCCCCCCC[C@@H](O)[C@H]1CC[C@@H]([C@H]2CC[C@H]([C@H](O)CCCCCCCCCC[C@@H]3CC(CC(C)=O)C(=O)O3)O2)O1 (some centres not stated),GI50,[1],27.4 µM
same,TGI,[1],> 100 µM
same,GI50,[2],3.23 µM
same,TGI,[2],66.3 µM
same,TGI,[4],> 100 µM
same,TGI,[5],97 µM
same,GI50,[7],24.2 µM
same,TGI,[7],> 100 µM
same,GI50,[8],22.7 µM
same,TGI,[8],> 100 µM
same,TGI,[10],> 100 µM
same,GI50,[9],20.9 µM
same,TGI,[9],> 100 µM
CC(C)(CN1CCCCC1)C(=O)CC(SCCS(=O)(=O)O)c1ccc(Cl)c(Cl)c1 (configuration not stated),TGI,[1],15.1 µM
same,TGI,[2],20.8 µM
same,TGI,[3],10.1 µM
same,TGI,[4],13.5 µM
same,TGI,[5],12.9 µM
same,TGI,[6],19.3 µM
same,TGI,[7],23 µM
same,TGI,[8],8.45 µM
same,TGI,[10],14.6 µM
same,TGI,[9],5.35 µM
C=C1C[C@]23CC[C@@H]4C(CO)(CO)CC(=O)C[C@]4(C)[C@@H]2C(O)C[C@H]1C3 (some centres not stated),TGI,[1],> 100 µM
same,TGI,[2],> 100 µM
same,TGI,[3],> 100 µM
same,TGI,[4],> 100 µM
same,TGI,[6],> 100 µM
same,TGI,[7],> 100 µM
same,TGI,[8],> 100 µM
same,TGI,[10],> 100 µM
same,TGI,[9],> 100 µM
Cn1c(=O)c2[nH]cnc2n(C)c1=O,TGI,[2],> 100 µM
same,TGI,[4],> 100 µM
same,TGI,[7],> 100 µM
same,TGI,[8],> 100 µM
same,TGI,[10],> 100 µM
same,TGI,[9],> 100 µM
O=C(n1c(=O)n(-c2ccc([N+](=O)[O-])cc2)c(=O)n1C(=O)C(Cl)(Cl)Cl)C(Cl)(Cl)Cl,TGI,[1],> 100 µM
same,TGI,[2],> 100 µM
same,TGI,[3],> 100 µM
same,TGI,[4],> 100 µM
same,TGI,[5],> 100 µM
same,TGI,[6],> 100 µM
same,TGI,[7],> 100 µM
same,TGI,[8],> 100 µM
same,TGI,[10],> 100 µM
same,TGI,[9],> 100 µM
Cc1ccc(N=Nc2cc(=O)[nH]c(=O)[nH]2)cc1C,TGI,[1],42.6 µM
same,TGI,[2],28.7 µM
same,TGI,[4],26.9 µM
same,TGI,[5],36.9 µM
same,TGI,[6],29.1 µM
same,TGI,[7],24.5 µM
same,TGI,[8],30.9 µM
same,TGI,[10],28.8 µM
same,TGI,[9],11.2 µM
Oc1cc(Br)cc2cc(Br)cnc12,TGI,[1],> 100 µM
same,TGI,[2],> 100 µM
same,TGI,[3],5.88 µM
same,TGI,[4],12.6 µM
same,TGI,[5],24.2 µM
same,TGI,[7],> 100 µM
same,TGI,[8],> 100 µM
same,TGI,[9],> 100 µM
C=C1C(=O)O[C@H]2[C@@H](O)[C@H](C)CCC/C(C)=C/CC[C@@]3(C)O[C@@H]3C[C@@H]12,TGI,[1],22 µM
same,TGI,[2],22.4 µM
same,TGI,[3],22.6 µM
same,TGI,[4],15.6 µM
same,TGI,[5],25.3 µM
same,TGI,[6],26.9 µM
same,TGI,[7],33.1 µM
same,TGI,[8],> 51.2 µM
same,TGI,[10],34.8 µM
same,TGI,[9],4.68 µM
CC1Oc2c(c(O)cc3oc(=O)cc(-c4ccccc4)c23)C(=O)C1C (configuration not stated),TGI,[1],> 100 µM
same,TGI,[3],> 100 µM
same,TGI,[4],> 100 µM
same,TGI,[5],> 100 µM
same,TGI,[6],> 100 µM
same,TGI,[8],> 100 µM
same,TGI,[9],> 100 µM
CCCS(=O)OC1C(C2COC(C)(C)O2)OC2OC(C)(C)OC21 (configuration not stated),TGI,[1],62.4 µM
same,TGI,[2],28.2 µM
same,TGI,[3],35.2 µM
same,TGI,[4],33.2 µM
same,TGI,[5],97 µM
same,TGI,[6],28.4 µM
same,TGI,[7],28.2 µM
same,TGI,[8],29.3 µM
same,TGI,[10],26.1 µM
same,TGI,[9],41.6 µM
CC(C)=CCC/C(C)=C/CCC1(C)C2COC(=O)C21 (configuration not stated),TGI,[1],> 100 µM
same,TGI,[2],> 100 µM
same,TGI,[3],> 100 µM
same,TGI,[4],> 100 µM
same,TGI,[5],> 100 µM
same,TGI,[6],> 100 µM
same,TGI,[7],> 100 µM
same,TGI,[10],> 100 µM
same,TGI,[9],> 100 µM
Cc1ccc(NC(=O)NC23CC4CC(CC(F)(C4)C2)C3)cc1,TGI,[2],> 100 µM
same,TGI,[3],> 100 µM
same,TGI,[4],> 100 µM
same,TGI,[5],> 100 µM
same,TGI,[6],> 100 µM
same,TGI,[7],> 100 µM
same,TGI,[8],> 100 µM
same,TGI,[10],> 100 µM
COc1ccc(CNc2cnc3cc(N)ccc3n2)cc1OC,TGI,[1],> 100 µM
same,TGI,[2],> 100 µM
same,TGI,[7],> 100 µM
same,TGI,[8],> 100 µM
same,TGI,[9],> 100 µM
CC(C)(C)OC(=O)N[C@@H](Cc1ccccc1)C(=O)N1CC[C@@H](C(=O)N2[C@H]3CC4CC[C@@]3(CS2(=O)=O)C4(C)C)N1,TGI,[1],> 100 µM
same,TGI,[2],> 100 µM
same,TGI,[3],> 100 µM
same,TGI,[5],> 100 µM
same,TGI,[6],> 100 µM
same,TGI,[7],> 100 µM
same,TGI,[8],> 100 µM
same,TGI,[10],> 100 µM
same,TGI,[9],> 100 µM
O=c1oc2ccccc2cc1-c1nc2ccccc2s1,TGI,[1],25.2 µM
same,TGI,[4],18.6 µM
same,TGI,[5],29.4 µM
same,TGI,[6],21.4 µM
same,TGI,[7],> 54.3 µM
same,TGI,[8],20.4 µM
same,TGI,[10],65.3 µM
C[C@@H](CC(O)C(O)C(C)(C)O)C1CCC23CC12CCC1[C@@]2(C)CCC(=O)C(C)(C)C2CC(OC2OC(CO)C(O)C(O)C2O)[C@]13C (some centres not stated),TGI,[1],> 10 µM
same,TGI,[3],> 10 µM
same,TGI,[4],> 10 µM
same,TGI,[5],> 10 µM
same,TGI,[6],> 10 µM
same,TGI,[7],> 10 µM
same,TGI,[8],> 10 µM
same,TGI,[10],> 10 µM
same,TGI,[9],> 10 µM

# Source: PubChem BioAssay (NCI)
